Data on eleven molecules can be found in patent US10000527B2, “11-substituted bile acid derivatives, process for the preparation thereof and use of these compounds as medicaments” (priority 2013, dated 2018).

Data set [1] concerns THP-1 (Human acute monocytic leukemia cell line). The experiment in a line: Anti-cancer screening, THP-1 cell proliferation. The class given is cell-based. Particulars: for IC50: concentration required to inhibit 50% of the cell proliferation; for IC90: concentration required to inhibit 90% of the cell proliferation, read-out: MIC.
Data set [2] deals with HeLa (Human Cervix epithelioid carcinoma cell line). The experiment in a line: Anti-cancer screening, HeLa cell proliferation. It is filed as cell-based. Particulars: for IC50: concentration required to inhibit 50% of the cell proliferation; for IC90: concentration required to inhibit 90% of the cell proliferation, read-out: MIC.
Data set [3] has as its system Panc-1 (Human pancreas carcinoma cell line). Nature of the data set: Anti-cancer screening, Panc-1 cell proliferation. The class given is cell-based. Particulars: for IC50: concentration required to inhibit 50% of the cell proliferation; for IC90: concentration required to inhibit 90% of the cell proliferation, read-out: MIC.
Data set [4] relates to A549 (Human lung adenocarcinoma epithelial cell line). The experiment in a line: Anti-cancer screening, A549 cell proliferation. The class given is cell-based. Particulars: for IC50: concentration required to inhibit 50% of the cell proliferation; for IC90: concentration required to inhibit 90% of the cell proliferation, read-out: MIC.
Data set [5] has as its system M. Tuberculosis H37Ra (DORMANT). The experiment in a line: Anti TB in vitro, dormant. The class given is cell-based, Mycobacterium tuberculosis H37Ra. Particulars: Mycobacterium tuberculosis.
Data set [6] concerns M. Tuberculosis H37Ra (ACTIVE). Nature of the data set: Anti TB in vitro, active. The class given is cell-based, Mycobacterium tuberculosis H37Ra. Particulars: Mycobacterium tuberculosis.
The subject of data set [7] is M. Tuberculosis. Nature of the data set: Anti TB ex vivo infection model, dormant. It is filed as cell-based. Particulars: Mycobacterium tuberculosis.
Data set [8] has as its system M. Tuberculosis. Nature of the data set: Anti TB ex vivo infection model, active. It is filed as cell-based. Particulars: Mycobacterium tuberculosis.
Setting [9] is: In Vitro, H37Ra DORMANT, read-out: IC 50.
[10] abbreviates: In Vitro, H37Ra DORMANT, read-out: MIC.
The mark [11] stands for this setting: In Vitro, H37Ra ACTIVE, read-out: IC 50.
Where [12] appears, read: In Vitro, H37Ra ACTIVE, read-out: MIC.

Converted amounts (≈) assume the structure as drawn. Read-outs that look alike come from different tables or passages of the source. Bounds are passed on as bounds.

As for `COC(=O)CC[C@@H](C)C1CCC2C3C([C@H](n4cc(-c5ccccc5)nn4)C(=O)[C@@]21C)[C@@]1(C)CC[C@@H](OC(C)=O)C[C@H]1C[C@H]3OC(C)=O` (stereo partly drawn) [Compound 1, (3R,5S,7R,10S,11S,13R)-17-((R)-5-methoxy-5-oxopentan-2-yl)-10,13-dimethyl-12-oxo-11-(4-phenyl-1H-1,2,3-triazol-1-yl)hexadecahydro-1H-cyclopenta[a]phenanthrene-3,7-diyl diacetate], the IC50 in [1] was above 100 µg/mL; in data set [2], 7.02 µg/mL; in data set [3], above 100 µg/mL; in data set [4] it was above 100 µg/mL. In addition, the IC90 in [1] was above 100 µg/mL; in data set [2], 99.1 µg/mL; in [3], above 100 µg/mL; in data set [4] it was above 100 µg/mL.

With `CCCCCCc1cn([C@@H]2C(=O)[C@@]3(C)C(CCC3[C@H](C)CCC(=O)OC)C3C2[C@@]2(C)CC[C@@H](OC(C)=O)C[C@H]2C[C@H]3OC(C)=O)nn1` (stereo partly drawn) [Compound 2, (3R,5S,7R,10S,11S,13R)-11-(4-hexyl-1H-1,2,3-triazol-1-yl)-17-((R)-5-methoxy-5-oxopentan-2-yl)-10,13-dimethyl-12-oxohexadecahydro-1H-cyclopenta[a]phenanthrene-3,7-diyl diacetate], the IC50 in data set [1] is above 100 µg/mL; in data set [2] it was 6.59 µg/mL; in data set [3] it was above 100 µg/mL; in data set [4] it was above 100 µg/mL; in [5] (setting [9]), 0.17 µg/mL; in data set [6] (setting [11]) it was 0.64 µg/mL. Also, the figures for the IC50 in the data set with M. Tuberculosis [7] and with M. Tuberculosis [8] were 0.13 µg/mL and 0.25 µg/mL, respectively. In addition, the IC90 in [1], in data set [2], in [3] and in data set [4] was above 100 µg/mL each time. The MIC in data set [5] (setting [10]) was determined as 2.43 µg/mL; in data set [6] (setting [12]), 2.63 µg/mL; in the data set on M. Tuberculosis [7], 1.55 µg/mL; in the data set on M. Tuberculosis [8] it was 2.8 µg/mL.

As to `COC(=O)CC[C@@H](C)C1CCC2C3C([C@H](n4cc(-c5ccc(F)cc5)nn4)C(=O)[C@@]21C)[C@@]1(C)CC[C@@H](OC(C)=O)C[C@H]1C[C@H]3OC(C)=O` (stereo partly drawn) [Compound 3, (3R,5S,7R,10S,11S,13R)-11-(4-(4-fluorophenyl)-1H-1,2,3-triazol-1-yl)-17-((R)-5-methoxy-5-oxopentan-2-yl)-10,13-dimethyl-12-oxohexadecahydro-1H-cyclopenta[a]phenanthrene-3,7-diyl diacetate], the IC50 in data set [1] is above 100 µg/mL; in data set [2] it was 9.76 µg/mL; in [3], above 100 µg/mL; in [4], above 100 µg/mL. In addition, the IC90 in data set [1], in [2], in data set [3] and in data set [4] was above 100 µg/mL in each case.

`COC(=O)CC[C@@H](C)C1CCC2C3C([C@H](n4cc(-c5ccccn5)nn4)C(=O)[C@@]21C)[C@@]1(C)CC[C@@H](OC(C)=O)C[C@H]1C[C@H]3OC(C)=O` (stereo partly drawn) [Compound 4, (3R,5S,7R,10S,11S,13R)-17-((R)-5-methoxy-5-oxopentan-2-yl)-10,13-dimethyl-12-oxo-11-(4-(pyridin-2-yl)-1H-1,2,3-triazol-1-yl)hexadecahydro-1H-cyclopenta[a]phenanthrene-3,7-diyl diacetate]: the IC50 was above 100 µg/mL in [1], 15.2 µg/mL in data set [2], above 100 µg/mL in [3] and above 100 µg/mL in data set [4]. Moreover, the IC90 in data set [1] is above 100 µg/mL; in data set [2], 85.9 µg/mL; in data set [3], above 100 µg/mL; in data set [4] it was above 100 µg/mL.

`CCOC(=O)N[C@@H]1C(=O)[C@@]2(C)C(CCC2[C@H](C)CCC(=O)OC)C2C1[C@@]1(C)CC[C@@H](OC(C)=O)C[C@H]1C[C@H]2OC(C)=O` (stereo partly drawn) [Compound 5, (3R,5S,7R,10S,11S,13R)-11-((ethoxycarbonyl)amino)-17-((R)-5-methoxy-5-oxopentan-2-yl)-10,13-dimethyl-12-oxohexadecahydro-1H-cyclopenta[a]phenanthrene-3,7-diyl diacetate]: the melting point was in the range of 82 to 85 °C. Moreover, in data set [1], the IC50 was above 100 µg/mL and the IC90 was above 100 µg/mL. Also, in data set [2], the IC50 came to 34.2 µg/mL and the IC90 was above 100 µg/mL. Besides, in data set [3], the IC50 is above 100 µg/mL and the IC90 is above 100 µg/mL. Also, in data set [4], the IC50 was above 100 µg/mL and the IC90 is above 100 µg/mL.

In the case of `COC(=O)CC[C@@H](C)C1CCC2C3C([C@H](NC(=O)C4CCCN4)C(=O)[C@@]21C)[C@@]1(C)CC[C@@H](OC(C)=O)C[C@H]1C[C@H]3OC(C)=O` (stereo partly drawn) [Compound 6, (3R,5S,7R,10S,11S,13R)-17-((R)-5-methoxy-5-oxopentan-2-yl)-10,13-dimethyl-12-oxo-11-(pyrrolidine-2-carboxamido)hexadecahydro-1H-cyclopenta[a]phenanthrene-3,7-diyl diacetate], the melting point was in the range of 102.6 to 103.8 °C. In [1], the IC50 was above 100 µg/mL and the IC90 was above 100 µg/mL. Besides, in [2], the IC50 was above 100 µg/mL and the IC90 is above 100 µg/mL. In [3], the IC50 is above 100 µg/mL and the IC90 was above 100 µg/mL. Also, in data set [4], the IC50 was above 100 µg/mL and the IC90 was above 100 µg/mL.

With `COC(=O)CC[C@@H](C)C1CCC2C3C([C@H](NC(=O)C(CO)NC(=O)OC(C)(C)C)C(=O)[C@@]21C)[C@@]1(C)CC[C@@H](OC(C)=O)C[C@H]1C[C@H]3OC(C)=O` (stereo partly drawn) [Compound 7, (3R,5S,7R,10S,11S,13R)-11-(2-((tert-butoxycarbonyl)amino)-3-hydroxypropanamido)-17-((R)-5-methoxy-5-oxopentan-2-yl)-10,13-dimethyl-12-oxohexadecahydro-1H-cyclopenta[a]phenanthrene-3,7-diyl diacetate], the IC50 is 76.2 µg/mL in data set [1]; 18.2 µg/mL in [2]; above 100 µg/mL in data set [3]; above 100 µg/mL in data set [4]; 0.58 µg/mL in data set [5] (setting [9]); 1.24 µg/mL in [6] (setting [11]). The IC50 in the data set on M. Tuberculosis [7] worked out at 1.32 µg/mL; in the data set with M. Tuberculosis [8] it was 1.96 µg/mL. The IC90 in data set [1], in data set [2], in data set [3] and in data set [4] was above 100 µg/mL each time. Besides, the MIC in data set [5] (setting [10]) came to 8.6 µg/mL; in data set [6] (setting [12]), 9.03 µg/mL; in the data set on M. Tuberculosis [7], 23.8 µg/mL; with M. Tuberculosis [8] it was 27.3 µg/mL.

As for `COC(=O)CC[C@@H](C)C1CCC2C3C([C@H](NC(C)C)C(=O)[C@@]21C)[C@@]1(C)CC[C@@H](OC(C)=O)C[C@H]1C[C@H]3OC(C)=O` (stereo partly drawn) [Compound 10, (3R,5S,7R,10S,11S,13R)-11-(isopropylamino)-17-((R)-5-methoxy-5-oxopentan-2-yl)-10,13-dimethyl-12-oxohexadecahydro-1H-cyclopenta[a]phenanthrene-3,7-diyl diacetate], the IC50 is above 100 µg/mL in data set [1], 11.6 µg/mL in data set [2], above 100 µg/mL in data set [3] and above 100 µg/mL in data set [4]. In addition, the IC90 in data set [1], in data set [2], in [3] and in data set [4] was above 100 µg/mL throughout.

Consider `NNC(=O)c1ccncc1` [ISONIAZID, reference compound], for which the IC50 was 0.0023 µg/mL (≈ 0.0168 µM) in data set [5] (H37RA), 0.0019 µg/mL (≈ 0.0139 µM) in data set [6] (H37RA), 0.0024 µg/mL (≈ 0.0175 µM) in the data set on M. Tuberculosis [7] and 0.0024 µg/mL (≈ 0.0175 µM) with M. Tuberculosis [8]. Moreover, the MIC in [5] (H37RA) worked out at 0.075 µg/mL (≈ 0.547 µM); in data set [6] (H37RA), 0.074 µg/mL (≈ 0.54 µM); with M. Tuberculosis [7] it was 0.0078 µg/mL (≈ 0.0569 µM); in the data set on M. Tuberculosis [8], 0.075 µg/mL (≈ 0.547 µM).

With `CC(=O)O[C@H]1C(=O)[C@@]2(C)[C@H]([C@H](OC(=O)c3ccccc3)[C@]3(O)C[C@H](OC(=O)[C@H](O)[C@@H](NC(=O)c4ccccc4)c4ccccc4)C(C)=C1C3(C)C)[C@]1(OC(C)=O)CO[C@@H]1C[C@@H]2O` [Paclitaxel, reference compound], the IC50 in data set [1] is 0.137 µg/mL (≈ 0.161 µM); in data set [2], 0.0048 µg/mL (≈ 0.00562 µM); in [3], 0.128 µg/mL (≈ 0.15 µM); in data set [4], 0.0035 µg/mL (≈ 0.0041 µM). Moreover, the IC90 in [1] was 5.81 µg/mL (≈ 6.81 µM); in data set [2], 0.075 µg/mL (≈ 0.0878 µM); in data set [3], 5.71 µg/mL (≈ 6.69 µM); in data set [4] it was 0.0706 µg/mL (≈ 0.0827 µM).

As for `CO[C@H]1/C=C/O[C@@]2(C)Oc3c(C)c(O)c4c(O)c(c(/C=N/N5CCN(C)CC5)c(O)c4c3C2=O)NC(=O)/C(C)=C\C=C\[C@H](C)[C@H](O)[C@@H](C)[C@@H](O)[C@@H](C)[C@H](OC(C)=O)[C@@H]1C` [RIFAMPICIN, reference compound], the IC50 came to 0.0014 µg/mL (≈ 0.0017 µM) in [5] (setting [9]), 0.0018 µg/mL (≈ 0.00219 µM) in data set [6] (setting [11]), 0.0018 µg/mL (≈ 0.00219 µM) with M. Tuberculosis [7] and 0.0021 µg/mL (≈ 0.00255 µM) in the data set with M. Tuberculosis [8]. Moreover, the MIC in [5] (setting [10]) is 0.043 µg/mL (≈ 0.0523 µM); in data set [6] (setting [12]) it was 0.048 µg/mL (≈ 0.0583 µM); in the data set on M. Tuberculosis [7], 0.048 µg/mL (≈ 0.0583 µM); in the data set with M. Tuberculosis [8], 0.051 µg/mL (≈ 0.062 µM).
